From paper PMC10702053, “Design, synthesis, and characterization of novel system xC^− transport inhibitors: inhibition of microglial glutamate release and neurotoxicity” (Journal of Neuroinflammation, 2023)
Entries after “also recorded” stand apart in the source; their conditions may differ. Like-named read-outs stand apart in the source and are kept apart here.

Legend:
[1] = biological target: T1, SxC^− transporter (system xC^− cystine-glutamate antiporter) (Rattus norvegicus, UniProt A0A8I6AB70); experiment: Microglial glutamate release assay (LPS-activated primary microglia); assay type: cell-based
T1 construct: endogenous in cells
T1 sequence (A0A8I6AB70 1-502): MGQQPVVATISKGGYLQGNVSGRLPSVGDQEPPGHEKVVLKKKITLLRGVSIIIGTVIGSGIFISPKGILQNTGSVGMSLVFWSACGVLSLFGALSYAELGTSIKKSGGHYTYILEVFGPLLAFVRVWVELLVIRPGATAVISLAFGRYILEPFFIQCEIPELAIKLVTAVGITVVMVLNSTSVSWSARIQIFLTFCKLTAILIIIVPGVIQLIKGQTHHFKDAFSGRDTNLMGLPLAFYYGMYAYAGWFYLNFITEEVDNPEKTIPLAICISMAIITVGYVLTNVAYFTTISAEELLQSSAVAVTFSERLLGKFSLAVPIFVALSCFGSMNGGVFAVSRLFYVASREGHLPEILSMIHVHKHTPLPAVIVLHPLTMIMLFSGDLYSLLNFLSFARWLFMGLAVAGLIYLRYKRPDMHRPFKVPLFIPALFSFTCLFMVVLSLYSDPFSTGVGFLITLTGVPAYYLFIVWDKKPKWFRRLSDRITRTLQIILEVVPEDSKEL
T1 sequence (Q794F9 whole entry partner): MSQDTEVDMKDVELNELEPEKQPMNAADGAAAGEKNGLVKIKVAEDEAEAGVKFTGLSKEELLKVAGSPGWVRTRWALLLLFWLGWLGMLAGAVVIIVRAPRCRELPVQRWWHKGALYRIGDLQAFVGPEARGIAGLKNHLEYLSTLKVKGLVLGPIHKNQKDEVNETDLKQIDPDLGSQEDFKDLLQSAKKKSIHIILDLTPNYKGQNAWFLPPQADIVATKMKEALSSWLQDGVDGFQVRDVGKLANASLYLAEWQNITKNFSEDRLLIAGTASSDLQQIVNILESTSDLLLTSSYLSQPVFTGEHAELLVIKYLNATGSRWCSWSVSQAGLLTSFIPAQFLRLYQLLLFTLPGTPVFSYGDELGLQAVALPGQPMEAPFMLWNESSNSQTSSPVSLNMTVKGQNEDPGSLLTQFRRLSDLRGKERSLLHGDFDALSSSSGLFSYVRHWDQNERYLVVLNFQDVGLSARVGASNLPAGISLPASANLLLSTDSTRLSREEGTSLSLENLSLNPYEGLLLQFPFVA
Procedure: Primary cultures of rat microglia were established as described previously. Microglia were seeded at 375,000/cm^2 in 96-well plates with minimal essential medium with Earle’s salts (MEM) containing 10% fetal bovine serum (FBS). After an overnight plating, the cultures were washed twice with serum-free MEM, and then a third volume was applied containing test substances at the indicated concentrations; MEM contains 100 μM (Cys)2. Immediately thereafter, lipopolysaccharide (LPS) was added to some wells at 100 ng/ml. This concentration was selected for this particular lot of LPS as the concentration producing a slightly submaximal response (i.e., 2–5% below the maximum). After 18 h, 50 μl of medium was transferred from each well to a black, opaque-bottomed 96-well plate and combined with 50 μl of assay reagent from a Amplex® Red Glutamic Acid Assay kit (ThermoFisher). A standard curve was generated with a range of concentrations of L-glutamate (monosodium salt). The assay reagent contained 0.25 U/ml horseradish peroxidase, 0.08 U/ml L-glutamate oxidase, 0.5 U/ml L-glutamate/pyruvate transaminase, and 200 μM L-alanine. After 30 min, fluorescence was measured in a Molecular Devices SpectraMax 3 with excitation at 550 nm and emission at 590 nm; values were interpolated into the standard curve. The microglial medium was also assayed for nitric oxide using Griess reagent to confirm that none of the experimental compounds was a general inhibitor of microglial activation. We also considered whether any compound was toxic to microglia. The microglia remaining in the 96-well plates were combined with 3-(4,5-dimethylthiazol-2-yl)-2,5-diphenyl-2H-tetrazolium bromide (MTT) at a final concentration of 125 μg/ml (in MEM/FBS) and incubated for 30 min at 37 °C and 5.5% CO2. After removal of the medium, 100 μl of dimethyl sulfoxide (DMSO) was added to dissolve the formazan crystals, and absorbance at 540 nm was measured in the SpectraMax 3; the mean background obtained in wells containing DMSO alone was subtracted from each experimental value.
Data were analyzed in GraphPad Prism 9.5.1. Nonlinear regression was performed on the glutamate release assay data to derive IC50 values and the graphed plot lines. ANOVA indicated post hoc tests were applied to dosimetric data; P < 0.05 was considered significant.
Fig. 2 Microglial Glu release assay. Rat primary microglia were activated with 100 ng/ml LPS alone or immediately following application of the indicated concentrations of test substances. After 18 h in the presence of LPS, an aliquot of medium was assayed for Glu via a […]. A First generation of compounds was created by simply varying the position of a methyl group around an aromatic ring, comparing activity to 3,5-DBT. B Additional modifications were evaluated, including several that simply extend the size of the structure hypothesized to fit into the hydrophobic pocket of the SxC^− transporter. Values are represented relative to the Glu detected in cultures treated with LPS alone; each data point represents a mean of 4 cultures. Nonlinear regression was performed to provide the plot lines

[2] = Solubility in aqueous media (observation); assay type: physicochemical
[3] = Light sensitivity (observation); assay type: physicochemical
primary cortical neurons = experiment: Neurotoxicity assay: microglia transwell / cortical neuron coculture, MTT; assay type: cell-based, rat; settings: microglia treated with compound + LPS 100 ng/ml, 1 h, then 18 h with cortical neurons
Procedure: Primary cultures of rat cortical neurons were established as described previously; incorporation of both a serum-free medium and an intermittent treatment with cytosine arabinoside results in cultures that are among the purest neuronal primary cultures available. The cultures were seeded in 24-well plates, and 8 days later primary microglia were plated in transwell inserts (12-mm diameter) at 375,000/cm^2, washed to serum-free MEM, and treated with test substances followed immediately by LPS (100 ng/ml). After 1 h, the inserts were placed into the wells of the neuronal cultures. After an additional 18 h, the inserts were removed, and neuronal survival was evaluated by MTT assay as described above. Values are represented relative to the MTT signal produced in cultures exposed to untreated microglia.
Fig. 6 35DPTA7 and 35DPTSA12 reduced the neurotoxicity of activated microglia. Primary microglia were plated on permeable membranes in basket-type cell-culture inserts. Some cultures were treated with the indicated concentrations of 35DBTA7 or 35DBTSA12, followed immediately by application of LPS (100 ng/ml); some cultures were untreated and some received LPS alone. After 1 h, the inserts were placed into wells containing primary cortical neurons. After an additional 18 h, neuronal survival was determined by MTT assay. […]

[4] = biological target: T1, SxC^− transporter (system xC^− cystine-glutamate antiporter); experiment: Cystine uptake assay (selenocystine) in LPS-activated primary microglia; assay type: cell-based; settings: LPS 100 ng/ml 15 h, selenocystine uptake 30 min, 0.03-300 μM
Procedure: Cystine uptake was measured essentially as per Shimomura et al. using the Cystine Uptake Assay Kit (DOJINDO). Primary microglia were seeded as per glutamate release assays, and some cultures were treated the following day with 100 ng/ml LPS. After 15 h, the cultures were washed twice with Hank’s balanced salt solution (HBSS) and then incubated 5 min at 37 °C in HBSS containing fresh LPS and test substances at the indicated concentrations. The cultures were then exposed to HBSS containing selenocystine (DOJINDO) for 30 min at 37 °C, after which they were washed three times with ice-cold phosphate-buffered saline and then fixed in 50 μl methanol. A detection buffer comprising fluorescein O,O’-diacrylate and reducing agent (DOJINDO) was then added, and the plate was sealed and incubated for 30 min at 37 °C. Reaction product was then assayed in the Molecular Devices SpectraMax 3 with excitation at 490 nm and emission at 535 nm. Blanks consisted of wells containing only cells that had been washed, fixed with methanol, and incubated with the detection buffer, and the values from these wells were subtracted from the experimental values.
Fig. 5 35DPTA7 and 35DPTSA12 inhibit cystine uptake in microglia. Rat primary microglia were activated with 100 ng/ml LPS alone for 15 h, then the indicated concentrations of test substances were applied during application of selenocystine. […]

[5] = rat primary microglia, LPS 100 ng/ml, 18 h
[6] = rat primary microglia, LPS 100 ng/ml, 18 h, nonlinear regression in GraphPad Prism, read-out: IC50 ± SEM, inhibition of microglial Glu release

Compound	Inhibition of SxC^− / microglial Glu release (in words) [1, 5]	IC50 [1, 6] [nM]	other results
N[C@@H](Cc1cc(Br)c(O)c(Br)c1)C(=O)O [3,5-DBT, 3,5-dibromotyrosine]	potent inhibition	–	Solubility in water / aqueous solutions (in words) [2]: high solubility in water as a salt; IC50 [1]: 3490 ± 779 nM
Cc1ccccc1C(=O)N[C@@H](Cc1cc(Br)c(O)c(Br)c1)C(=O)O [35DBTA1]	–	1030 ± 440	–
O=C(O)[C@H](Cc1cc(Br)c(O)c(Br)c1)NC(=O)C(F)(F)F [35DBTA6]	trend toward inhibitory properties at low concentrations but produced a reversal of that trend above 3 μM	–	–
O=C(N[C@@H](Cc1cc(Br)c(O)c(Br)c1)C(=O)O)c1ccc(-c2ccccc2)cc1 [35DBTA7]	quite effective	1620 ± 377	Neuronal survival (MTT) in presence of LPS-activated microglia (in words) (primary cortical neurons): elevated the survival signal; also recorded: quite effective; Inhibition of cystine uptake into microglia (in words) [4]: dose-dependent inhibition
O=C(N[C@@H](Cc1cc(Br)c(O)c(Br)c1)C(=O)O)c1ccc(-c2ccc(-c3ccccc3)cc2)cc1 [35DBTA8]	quite effective	172 ± 5.6	Solubility in water / aqueous solutions (in words) [2]: poorly soluble; Solubility of the disodium salt (carboxylate and phenoxide) in aqueous media ([2]; disodium salt): poorly soluble
N[C@@H](Cc1ccc(O)cc1)C(=O)O [Tyr, L-tyrosine, reference compound]	does not possess any inhibitory properties	–	–

Further lines, with some results ahead:

Inhibition of SxC^− / microglial Glu release (in words) [1, 5]	IC50 [1, 6] [nM]	Compound	other results
completely inactive	–	N[C@@H](Cc1nc(I)[nH]c1I)C(=O)O [2,5-DIH, 2,5-diiodohistidine]	–
–	665 ± 126	N[C@@H](Cc1cc(I)c(O)c(I)c1)C(=O)O [3,5-DIT]	Light sensitivity [3]: exceedingly light sensitive
–	5790 ± 3960	Cc1cccc(C(=O)N[C@@H](Cc2cc(Br)c(O)c(Br)c2)C(=O)O)c1 [35DBTA2]	–
greatest potency	159 ± 24.4	Cc1ccc(C(=O)N[C@@H](Cc2cc(Br)c(O)c(Br)c2)C(=O)O)cc1 [35DBTA3]	–
–	25500 ± 4590	CCC(=O)N[C@@H](Cc1cc(Br)c(O)c(Br)c1)C(=O)O [35DBTA5]	–
